Measurements as given in patent US20190298664A1, “METHOD AND KIT FOR MYOCARDIAL REPERFUSION, AND METHOD FOR ATTENUATING OR REDUCING MYOCARDIAL REPERFUSION INJURY” (Academia Sinica, priority 2018, published 2019).
Where two headings read alike, the source gives them in different places.

Legend:
[1] = tested on: overall PTP activity in H9C2 cells; assay: Overall PTP activity (orthovanadate-sensitive fraction) by pNPP assay in H9C2 cells; type: cell-based; details: 5, 10 and 20 μmol/L for 20 min
Procedure: For heart tissue: At the end of the treatment, the left ventricle of mouse heart is gently homogenized in ice-cold RIPA buffer with Ser/Thr phosphatase inhibitors inside. Then the samples are centrifuged at 16,100×g for 10 min at 4° C. to remove the debris. Tissue extract (1 mg) is incubated with pNPP (2 mM) in reaction buffer at 37° C. for 60 min on a shaker. At the end of incubation, the reaction is terminated by addition of the same volume of 0.1 N NaOH. The released p-nitrophenolate ion is measured by spectrophotometry reading the absorbance at 405 nm. For H9C2 cell: At the end of the treatment, the cells are collected in ice-cold RIPA buffer with Ser/Thr phosphatase inhibitors inside. Then the samples are centrifuged at 16,100×g for 10 min at 4° C. to remove the debris. The cell lysate is incubated with pNPP […] in reaction buffer at 37° C. for 90 min on a shaker. The reaction is terminated by adding the same volume of 0.1 N NaOH. The released p-nitrophenolate ion is measured by spectrophotometry reading the absorbance at 405 nm. H9C2 cell lines were purchased from ATCC® organization, U.S. Cell cultures were maintained in Dulbecco modified Eagle medium (DMEM) supplemented with 10% fetal bovine serum (FBS) and 1% Penicillin/Streptomycin at 37° C. incubator in a 5% CO2 humid atmosphere.

[2] = tested on: I/R mice; assay: Histopathology (H&E, Masson Trichrome) one week post-I/R in mice; type: in vivo, mouse; details: 2 mg/kg IP; one week after I/R
Excerpt: (A) The representative echocardiographic images, (B) the quantification of ejection fraction, (C) the representative histopathologic […]) the quantification of infarct size were obtained from the mice with the indicated treatments for one week post-I/R (n=8). (E) The representative enlarged H&E stain obtained from mice one week post-I/R. The areas highlighted in yellow boxes (left panel) are shown by the enlarged view (right panel). (F) The representative Masson Trichrome stain obtained from mice one week post-I/R. The black arrows indicate the location of inflammation or fibrosis in the myocardium. I/R: I/R-mice treated with the vehicle control, I/R+A: […] treated with Auranofin. (B) and (D) **P<0.01. We anesthetized the mouse with 5% isoflurane mixed with room air until loss of sensation of pain and then maintained the mouse in anesthesia status with 2% isoflurane mixed with room air through the whole procedure. The mouse's body temperature was maintained at 37° C. by a heating pad. After the mouse was intubated, we provided artificial ventilation to the mouse with a small animal ventilator. Then the chest cavity was opened at the second intercostal space and homemade chest retractors were utilized to widen the incision. We pulled the pericardium apart carefully and exposed the left anterior descending artery (LAD). A 7-0 silk was put underneath the LAD at the position of the tip of the left auricle, a 6 mm length of PE-10 tube was put on the surface of the LAD, and then a double knot was made to occlude the blood flow of LAD. The success of ligation was confirmed by […] anterior wall of the LV. For the reperfusion group, the LAD knot would be untied for the purpose of reperfusion after 1 hour of ischemia. For the sham operation group, all procedures were the same except for the knot that occluded the LAD flow. After the successful procedure, we left the silk in situ, closed the chest cavity and weaned the animal from the ventilator.

[3] = molecular target: T1, PTP-PEST catalytic domain (Homo sapiens, UniProt Q05209); assay: IC50 kinetic assay: phosphatase activity of purified PTP-PEST catalytic domain with phospho-Paxillin peptide substrate; type: biochemical
T1 construct: PTP PEST Catalytic Domain construct (Amino Acid:1-300) with 6 His tag at N-terminal; 6 His (N, cleaved yes); made in house; host or cells: Sf9 insect cells (Sf9-VECL-01), Bac-to-Bac baculovirus system
T1 sequence (Q05209 1-300): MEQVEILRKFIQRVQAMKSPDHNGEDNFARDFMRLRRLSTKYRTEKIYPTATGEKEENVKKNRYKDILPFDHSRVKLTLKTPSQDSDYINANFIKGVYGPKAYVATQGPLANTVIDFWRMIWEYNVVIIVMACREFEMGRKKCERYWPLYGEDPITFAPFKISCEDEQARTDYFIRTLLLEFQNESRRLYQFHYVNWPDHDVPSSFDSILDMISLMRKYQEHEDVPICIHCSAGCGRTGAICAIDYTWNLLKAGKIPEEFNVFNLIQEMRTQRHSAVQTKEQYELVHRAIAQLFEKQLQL
Procedure: PTP PEST Catalytic Domain construct (Amino Acid:1-300) with 6 His tag at N-terminal were expressed in insect cell Sf9-VECL-01 Cell line, using Bac-to-Bac Baculovirus expression system. Cells were infected with baculovirus at 27° C. and harvested after 65 hours of infection. Post harvesting cell suspension were centrifuged and pellet was stored at -80° C. To purify the protein, pellet was thawed and then dissolved in lysis buffer containing 50 mM Tris-HCl, 500 mM NaCl, 5% Glycerol, pH-7.5, and protease inhibitor cocktail tablet, EDTA free from Roche. Cell were lysed by TS-series cell disrupter (Constant System Ltd.) then lysate was centrifuged at 20000 RPM for 30 minutes at 4° C. using JA25.5 rotor in an Avanti J-26-XPI Centrifuge. […] After SEC purity of the protein was analyzed by SDS page and quantification was carried out by using NanoDrop Spectrophotometer. […] The absorbance of the reaction was measured at 650 nm by using Tecan Infinite […] instrument. The absorbance value was converted to amount of phosphate produced in reaction based on the standard curve generated from known phosphate concentration. Data generated in the reaction was fitted using nonlinear regression mode and IC50 value were calculated based on the equation function “Log(inhibitor) vs response-variable slope” from Graph Pad Prism 5.0.

CC(=O)OC[C@H]1O[C@@H]([S-])[C@H](OC(C)=O)[C@@H](OC(C)=O)[C@@H]1OC(C)=O.CCP(CC)CC.[Au+] [Auranofin, auranofin]
Overall PTP activity in H9C2 cells [1]: decreased
Fibrosis [2]: less
Infarct size (pathological study, H&E) [2]: smaller
Infiltrating inflammatory cells [2]: fewer
Myocardial thinning over the injured area [2]: a minor degree
IC50 ([3]; read-out: IC50 of the auranofin to the PTP-PEST, as restated in the summary): 38.7 µM
IC50 ([3]; synthetic phospho-Paxillin peptide as substrate, 25 nM protein, 50 μM peptide, 30° C., 30 min, read-out: IC50 on enzymatic activity of purified PTP-PEST): 38.7 µM
